Laboratory results taken from patent US8193377B2, “(−)-epigallocatechin gallate derivatives for inhibiting proteasome” (The Hong Kong Polytechnic University, priority 2004, dated 2012).
Read-outs that look alike come from different tables or passages of the source.

Assays:
[1] = molecular target: T1, purified rabbit 20s proteasome (Oryctolagus cuniculus, UniProt G1T4Q9); assay: Inhibition of chymotrypsin-like activity of purified 20S proteasome; type: biochemical
T1 construct: purchased Boston Biochem (Cambridge, Mass.)
T1 sequence (G1T4Q9 1-263): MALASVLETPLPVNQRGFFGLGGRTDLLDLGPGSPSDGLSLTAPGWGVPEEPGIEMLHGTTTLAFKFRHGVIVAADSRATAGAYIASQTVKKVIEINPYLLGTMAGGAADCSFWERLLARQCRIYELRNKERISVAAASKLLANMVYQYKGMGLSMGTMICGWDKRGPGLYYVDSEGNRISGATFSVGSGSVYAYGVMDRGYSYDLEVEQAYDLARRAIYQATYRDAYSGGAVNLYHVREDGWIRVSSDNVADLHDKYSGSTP
Method: Measurement of the chyrnotrypsin-like activity of the 20s proteasome was performed by incubating 0.5 μg of purified rabbit 20s proteasome with 40 μM fluorogenic peptide substrate, Suc-Leu-Leu-Val-Tyr-AMC, with or without various concentrations of natural and synthetic tea polyphenols as described previously (Nam S et. al.).
In order to test this hypothesis, proteasome activity was tested both in vitro and in intact Jurkat T cells with either 1 or (−)-EGCG (as a positive control). First, 1 and commercial (−)-EGCG were dissolved in DMSO and their effects on the chymotrypsin-like activity of purified 20S proteasomes were measured. […] In contrast, (−)-EGCG at 10 μM inhibited 80-90% of the proteasomal chymotrypsin-like activity. Therefore, as predicted, 1 outside of a cellular system is not a proteasome inhibitor.
Up to 25 μM of all protected and unprotected compounds were incubated with a purified 20s proteasome and a fluorogenic substrate for chyrnotrypsin activity for 30 min. The half-maximal inhibitory concentration or IC50 was then determined. […] This is consistent with the results above.

[2] = system: ubiquitinated proteins, Bax, p27, IκBα in Jurkat T cells; assay: Western blot for ubiquitinated proteins and proteasome targets (Bax, p27, IκBα) in Jurkat T cells; type: cell-based, human; conditions: 25 μM, up to 8 h
Method: Whole cells extracts were prepared as described previously (An B, Goldfarb R H, Siman R, Dou Q P. Novel dipeptidyl proteasome inhibitors overcome Bc1-2 protective function and selectively accumulate the cyclin-dependent kinase inhibitor p27 and induce apoptosis in transformed, but not normal, human fibroblasts. Cell Death Differ 1998; 5: 1062-75.). Analysis of Bax, IKBa, p27, PAW, and ubiquitinated protein expression were performed using monoclonal or polyclonal antibodies according to previously reported protocols (An B et. al.).
To determine what effects the synthetic tea analogs had on the proteasome in vivo, Jurkat cells were treated with 25 μM of each synthetic compound for either 4 or 24 h, with (−)-EGCG as a control (FIGS. 9A and 9B). […] This is consistent with the idea that protected analogs are potent inhibitors of the proteasome at an earlier time point and that after 24 h of treatment the ubiquitinated proteins are being depleted by deubiquitinating enzymes. […] The putative ubiquitinated IκBα band is still found in cells treated with 2a, 3a, and 4a (FIG. 9B, Lanes 9, 5, 7). The presumed ubiquinated IκBα band is now absent in the 24 h treatment, possibly due to deubiquitination (FIG. 9B). Actin was used as a loading control in this experiment.
The pro-apoptotic protein Bax and the cyclin-dependent kinase inhibitor p27 are natural proteasome targets. If the peracetate-protected polyphenols inhibit the intact proteasome activity, we would expect accumulation of Bax and p27 in these cells. To test this idea, Jurkat T cells were treated with both protected and unprotected compounds and lysates were analyzed by Western blot using specific antibodies to Bax and p27 (FIG. 15). After 4 h of treatment, the peracetate-protected analogs 24* and 19*, but not their unprotected analogs, were able to increase accumulation of both Bax (by 3- and 2.5-fold, respectively) and p27 (6- and 11-fold, respectively) (FIG. 15A). After 24 h treatment, Bax levels were increased in cells treated with all of the peracetate-protected compounds (13-, 12-, 40- and 36-fold, respectively, by 24*, 19*, 21* and 23*).

[3] = molecular target: 20S prokaryotic proteasome (UniProt Q9P992); conditions: Table 2, Reference a (Smith et al. 2004), cited from earlier work
Chain of 20S prokaryotic proteasome (Q9P992 whole entry): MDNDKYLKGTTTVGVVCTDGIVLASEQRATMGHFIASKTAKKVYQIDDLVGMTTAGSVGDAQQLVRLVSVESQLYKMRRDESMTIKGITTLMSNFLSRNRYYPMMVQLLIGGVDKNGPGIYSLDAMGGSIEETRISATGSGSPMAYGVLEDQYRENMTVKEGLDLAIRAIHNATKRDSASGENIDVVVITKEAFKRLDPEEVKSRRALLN

[4] = molecular target: 20S prokaryotic proteasome (UniProt Q9P992); assay: Table 2: effects of tea polyphenols on 20S prokaryotic proteasome activities; type: biochemical; conditions: Table 2, This work
Method: To further examine the effects of B-ring —OH group deletion on proteasome-inhibitory and cell death-inducing abilities, we synthesized several novel EGCG analogs with eliminated —OH groups on the B-ring as well as their putative prodrugs, the peracetate-protected counterparts. By using a purified 20S proteasome and a chymotrypsin-like fluorogenic substrate, the proteasome-inhibitory effects of the following unprotected polyphenol analogs are determined: […]

[5] = molecular target: T2, proteasomal chymotrypsin-like activity in Jurkat T cells (Homo sapiens, UniProt P28074); assay: Proteasomal chymotrypsin-like activity in intact Jurkat T cells / their lysates; type: cell-based; conditions: 25 μM, 4 and 24 h
T2 construct: measurement of the proteasomal chymotrypsin-like activity in the prepared lysates; endogenous in cells; host or cells: Jurkat T cells (human leukemia)
T2 sequence (P28074 60-263): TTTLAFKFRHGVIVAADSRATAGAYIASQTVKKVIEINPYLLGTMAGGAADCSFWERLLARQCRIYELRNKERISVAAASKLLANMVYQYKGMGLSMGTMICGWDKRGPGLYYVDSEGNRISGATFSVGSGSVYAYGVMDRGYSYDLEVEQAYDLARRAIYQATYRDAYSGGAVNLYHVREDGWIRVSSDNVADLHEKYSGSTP
Method: VA-13 or WI-38 cells were grown in 24 well plates (2 ml/well) to 70-80% confluency, followed by 24 h treatment with […] (−)-EGCG, 2, or 2a. […] Suc-Leu-Leu-Val-Tyr-AMC substrate was then added for 2.5 h at 37° C. and the chyrnotrypsin-like activity was measured as described above. Alternatively, cells were treated with each compound at 25 μM for 4 or 24 h, and harvested and lysed. Suc-Leu-Leu-Val-Tyr-AMC (40 μM) was then incubated with the prepared cell lysates for 2.5 h and the chymotrypsin-like activity was measured as described above.
If 1 converts to (−)-EGCG inside the cells, proteasome inhibition in vivo should be detected. To examine this possibility, human Jurkat cells was treated with 25 μM of 1 or (−)-EGCG for 12 or 24 h, followed by measurement of proteasome activity by using a chymotrypsin-like specific fluorogenic substrate in intact cells (FIG. 6a) or Western blot for ubiquinated proteins (FIG. 6b). […] To analyze the intracellular level of polyubiquitinated proteins, cells were lysed after 12 hours incubation and subjected to Western blotting. […] It is possible that the amount of EGCG generated from 1, and thus its biological activity inside the cells depends on a combination of factors: the relative permeability of 1 into the cells, the amount of esterase enzymes and the amount of anti-oxidants that may be present in the cells at any time.
To determine whether the unprotected and protected polyphenol analogs could inhibit the proteasomal activity in intact cells, leukemia Jurkat T cells were treated with each compound at 25 μM for 4 and 24 h, followed by collection of cell pellets and measurement of the proteasomal chymotrypsin-like activity in the prepared lysates.

VA-13 cells = assay: Immunostaining of apoptotic cells with anti-cleaved PARP-FITC; type: cell-based, human; conditions: 25 μM, 24 h
Method: Immunostaining of apoptotic cells was performed by addition of a FITC-conjugated polyclonal antibody that recognizes cleaved poly(ADP-ribose) polymerase (PARP) and visualized on an Axiovert 2 5 (Zeiss; Thornwood, N.Y.) microscope. Cells were grown to about 80% confluency in 60 mm dishes. VA-13 cells were then treated with VP-16, 2, or 2a (25 μM) for 24 h. Following treatment, both suspension and adhering cells were collected and washed twice in PBS pH 7.4. The cells were washed between all steps listed below and all washes are 1 min duration with PBS. Cells were then fixed in ice-cold 70% ethanol, permeabilized in 0.1% Triton-X-100 and blocked for 30 min in 1% bovine serum albumin (BSA) at room temperature. Incubation with the primary FITC-conjugated-p85/PARP antibody was for 30 min at 4° C. in the dark with mild shaking. Cell suspension was then transferred to glass slides in the presence of Vector Shield mounting medium with DAPI. Images were captured using AxioVision 4.1 and adjusted using Adobe Photoshop 6.0 software. Cell death was quantified by counting the number of apoptotic cells over the total number of cells in the same field. Data are mean of duplicate experiments ±SD.
It has been shown that proteasome inhibition can induce apoptosis in a wide variety of cancer cells, but not in normal, non-transformed cells (An B et al). Jurkat T cells are treated with 25 μM of each of the selected polyphenols and their protected analogs for 24 h to investigate their abilities to induce apoptotic cell death. […] The unprotected 2 induced much less apoptosis (21%), while 25 μM VP-16, used as a positive control, induced 92% apoptosis (FIGS. 10C and 10D). Counterstain with DAPI, which binds to the minor groove in A-T rich regions of DNA, was decreased drastically in apoptotic cells (FIG. 10C), consistent with DNA fragmentation in late stage apoptosis.

[6] = up to 25 μM, 30 min incubation, read-out: IC50
[7] = Suc-Leu-Leu-Val-Tyr-AMC, 2 h incubation, Table 1, read-out: IC50 (μM), unprotected

Compound: O=C(O[C@@H]1Cc2c(O)cc(O)cc2O[C@H]1c1cc(O)c(O)c(O)c1)c1ccc(O)cc1 (relative stereo) [Compound 3, (2S*,3R*)-trans-5,7-Bis(hydroxy)-2-[3,4,5-tris(hydroxy)phenyl]chroman-3-yl 4-(hydroxy)benzoate]
- IC50 [1, 6]: 14 to 15 µM

Compound: O=C(O[C@@H]1Cc2c(O)cc(O)cc2O[C@H]1c1cc(O)c(O)c(O)c1)c1cc(O)cc(O)c1 (relative stereo) [Compound 4, (2S*,3R*)-trans-5,7-Bis(hydroxy)-2-[3,4,5-tris(hydroxy)phenyl]chroman-3-yl 3,5-bis(hydroxy)benzoate]
- time course of ubiquitinated protein accumulation [2]: highest expression after 8 hours
- IC50 [1, 6]: 14 to 15 µM

Compound: O=C(OC1Cc2c(O)cc(O)cc2OC1c1ccc(O)c(O)c1)c1cc(O)c(O)c(O)c1 (single isomer, unassigned; (+)) [(+)-ECG]
- IC50 ([3]; read-out: IC50): 0.73 µM

Compound: O=C(OC1Cc2c(O)cc(O)cc2OC1c1ccc(O)c(O)c1)c1cc(O)c(O)c(O)c1 (single isomer, unassigned; (-)) [(−)-CG]
- IC50 [3]: 0.75 µM

Compound: O=C(O[C@H]1Cc2c(O)cc(O)c(Cc3ccccc3)c2O[C@H]1c1ccc(O)c(O)c1)c1cc(O)c(O)c(O)c1 [#1, (+)-(2S,3S)-5,7-dihydroxy-8-benzyl-2-[3,4-dihydroxy-phenyl]chroman-3-yl 3,4,5-trihydroxybenzoate]
- IC50 [4]: 0.39 µM

Compound: O=C(OC1Cc2c(O)cc(O)cc2OC1c1ccc(O)cc1)c1cc(O)c(O)c(O)c1 (centres unmarked) [#m]
- IC50 [4]: 4.56 µM

Compound: O=C(O[C@H]1Cc2c(O)cc(O)cc2O[C@@H]1c1ccc(O)c(O)c1)c1cc(O)c(O)c(O)c1 [(+)-CG, (+)-(2R,3S)-5,7-dihydroxy-2-(3,4-dihydroxyphenyl)chroman-3-yl 3,4,5-trihydroxybenzoate]
- IC50 [3]: 0.73 µM

Compound: O=C(O[C@@H]1Cc2c(O)cc(O)cc2O[C@@H]1c1ccc(O)c(O)c1)c1cc(O)c(O)c(O)c1 [(−)-ECG, (−)-epicatechin-3-gallate]
- IC50 [3]: 0.58 µM

Compound: O=C(O[C@@H]1Cc2c(O)cc(O)cc2O[C@@H]1c1ccc(O)cc1)c1ccc(O)cc1 [Compound 10, (−)-(2R,3R)-5,7-dihydroxy-2-(4-hydroxyphenyl)chroman-3-yl 4-hydroxybenzoate]
- proteasome inhibition in intact Jurkat T cells [5]: moderate potency
- IC50 [1, 7]: 8.51 µM

Compound: O=C(O[C@H]1Cc2c(O)cc(O)cc2O[C@@H]1c1ccc(O)c(O)c1)c1ccc(O)cc1 [Compound 11, (+)-(2R,3S)-5,7-dihydroxy-2-(3,4-dihydroxyphenyl)chroman-3-yl 4-hydroxybenzoate]
- IC50 [1, 7]: 7.7 µM

Compound: O=C(O[C@@H]1Cc2c(O)cc(O)cc2O[C@@H]1c1ccc(O)c(O)c1)c1ccc(O)cc1 [Compound 12, (−)-(2R,3R)-5,7-dihydroxy-2-(3,4-dihydroxyphenyl)chroman-3-yl 4-hydroxybenzoate]
- IC50 [1, 7]: 5.99 µM

Compound: O=C(O[C@H]1Cc2c(O)cc(O)cc2O[C@H]1c1ccccc1)c1cc(O)c(O)c(O)c1 [Compound 15, (+)-(2S,3S)-5,7-dihydroxy-2-phenylchroman-3-yl 3,4,5-trihydroxybenzoate]
- proteasome inhibition in intact Jurkat T cells [5]: moderate potency
- IC50 [4]: 4.56 µM

Compound: O=C(OC1Cc2c(O)cc(O)c(Cc3ccccc3)c2OC1c1ccc(O)c(O)c1)c1cc(O)c(O)c(O)c1 (centres unmarked) [Compound 16]
- IC50 [1, 7]: 0.59 µM

Compound: COc1cc([C@@H]2c3cc4c(cc3[C@@H](O[C@@H]3O[C@@H]5CO[C@@H](C)O[C@H]5[C@H](O)[C@H]3O)[C@H]3COC(=O)[C@H]23)OCO4)cc(OC)c1O [VP-16, reference compound]
- apoptotic cells (p85 cleaved PARP) (VA-13 cells): 92%
